14 compounds from ChEMBL document CHEMBL1201862, “PubChem BioAssay data set” (2004) can be followed below.

Test systems include A498; A549; ACHN; BT-549; DU-145; HOP-92; Hs-578T; MDA-MB-231; MDA-MB-435; MDA-N; Malme-3M; NCI-H460; SK-MEL-2; SNB-19; SR; U-251; DMS-114; DMS-273; M19-MEL; SNB-78.
Holding throughout (experiment): inhibition of tumour cell growth, NCI panel, 48 h

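A five-concentration, 48-hour dose response in 96-well plates underlies each endpoint, interpolated linearly between surrounding concentrations. At the GI50, growth is halved.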 Active and inactive are the calls of the source. Rule as the data show it: active = GI50 up to about 1.1 µM and inactive = higher.

Consider `C=CCn1c(=O)ccn(COCCO)c1=O`, for which the GI50 in the test on A498, in the test on A549, in the test on ACHN, in the test with BT-549, in the test with DU-145 and in the test on HOP-92 was > 100 µM (inactive) throughout. Besides, the GI50 in the test on Hs-578T, in the test on MDA-MB-231, in the test on MDA-MB-435, with MDA-N, with Malme-3M and in the test on NCI-H460 was > 100 µM (inactive) in each case. In addition, the GI50 was > 100 µM (inactive) in the test on SK-MEL-2, 25.8 µM (inactive) in the test with SNB-19, > 100 µM (inactive) in the test with SR and > 100 µM (inactive) with U-251.
For the compound `CSCCC(N)P(C)(=O)O` (stereo unspecified), the GI50 with A498, in the test on A549, in the test with ACHN, in the test with BT-549, in the test with DU-145 and in the test with HOP-92 was > 100 µM (inactive) throughout. Further, the GI50 is > 100 µM (inactive) in the test on Hs-578T; > 100 µM (inactive) with MDA-MB-231; > 22.2 µM (inactive) with MDA-MB-435; > 100 µM (inactive) in the test with MDA-N; > 100 µM (inactive) with Malme-3M; > 100 µM (inactive) in the test with NCI-H460. For the same compound, the GI50 with SK-MEL-2, with SNB-19, with SR and in the test with U-251 was > 100 µM (inactive) each time.
As to `CC(Oc1ccccc1Cl)C(=O)NN1C(=O)CSC1c1ccc(Cl)cc1` (stereo unspecified), the GI50 is 19.8 µM (inactive) in the test with A498; 18.5 µM (inactive) with A549; 27.2 µM (inactive) in the test on ACHN; 21.3 µM (inactive) with BT-549; 18.2 µM (inactive) in the test with DU-145; 20 µM (inactive) with HOP-92. For the same compound, the GI50 is 20.4 µM (inactive) in the test on Hs-578T; 17.3 µM (inactive) in the test on MDA-MB-231; 16.4 µM (inactive) with MDA-MB-435; 15.2 µM (inactive) in the test on MDA-N; 27 µM (inactive) in the test with Malme-3M; 25.4 µM (inactive) in the test on NCI-H460. Further, the GI50 is 21.9 µM (inactive) in the test on SK-MEL-2, 21.7 µM (inactive) with SNB-19, < 0.01 µM (active) in the test on SR and 17.8 µM (inactive) in the test with U-251.
`O=CN1CCC23CC(O)CCC2C1Cc1cc(Oc2nnnn2-c2ccccc2)cc(O)c13` (stereo unspecified): the GI50 is 68.4 µM (inactive) in the test with A498; > 100 µM (inactive) in the test on A549; > 100 µM (inactive) in the test with ACHN; 51.9 µM (inactive) in the test on BT-549; > 100 µM (inactive) with DU-145; 44.7 µM (inactive) in the test on HOP-92. Further, the GI50 in the test on Hs-578T is > 100 µM (inactive); in the test on MDA-MB-231 it was > 100 µM (inactive); in the test with MDA-MB-435 it was 66.7 µM (inactive); in the test with MDA-N, > 100 µM (inactive); in the test on Malme-3M, > 100 µM (inactive); with NCI-H460, 85.9 µM (inactive). For the same compound, the GI50 with SK-MEL-2 was 81.3 µM (inactive); with SNB-19, > 100 µM (inactive); with SR, 55 µM (inactive); with U-251 it was > 100 µM (inactive).
Regarding `COC(=O)C(=O)C(C(C)=O)C(=O)C(=O)Nc1ccc(C)cc1C` (stereo unspecified), the GI50 in the test on A498, with A549, with ACHN, in the test on DMS-114, in the test on DMS-273 and in the test on HOP-92 was > 100 µM (inactive) in each case. Further, the GI50 in the test with M19-MEL, in the test with NCI-H460, in the test with SK-MEL-2, in the test with SNB-19, in the test with SR and with U-251 was > 100 µM (inactive) in each case.
Consider `CC(C)(C)[Si](OC1CCOC1=O)(c1ccccc1)c1ccccc1` (stereo unspecified), for which the GI50 is 25.3 µM (inactive) in the test with A498; 15.2 µM (inactive) in the test on A549; 19.1 µM (inactive) in the test on ACHN; > 10 µM (inactive) in the test on HOP-92; 19.2 µM (inactive) with M19-MEL; 16.5 µM (inactive) in the test with Malme-3M. Also, the GI50 in the test with NCI-H460 was 18.7 µM (inactive); with SK-MEL-2, 16.6 µM (inactive); with SNB-19, 29.6 µM (inactive); in the test on SNB-78, 32.2 µM (inactive); with SR it was > 10 µM (inactive); in the test on U-251, 14.7 µM (inactive).
Regarding `CC(C(=O)n1nnc2ccccc21)N(c1ccccc1)c1ccccc1` (stereo unspecified), the GI50 in the test with A549 was 56.9 µM (inactive); in the test on ACHN, > 100 µM (inactive); with DMS-273, 91.6 µM (inactive); with M19-MEL, > 100 µM (inactive); in the test with Malme-3M, 84.7 µM (inactive); in the test on NCI-H460 it was > 100 µM (inactive). Besides, the GI50 was > 100 µM (inactive) in the test with SK-MEL-2; 48.3 µM (inactive) with SNB-19; > 100 µM (inactive) in the test with SNB-78; 78.3 µM (inactive) in the test on SR; 43.5 µM (inactive) in the test on U-251.
Turning to `NS(=O)(=O)c1cc2c(cc1Cl)NC(C(=O)NNC(=O)c1ccncc1)=NS2(=O)=O`, the GI50 in the test with A549, in the test on ACHN, in the test on DMS-114, in the test with DMS-273, with HOP-92 and in the test on M19-MEL was > 100 µM (inactive) each time. Also, the GI50 in the test with Malme-3M, in the test on NCI-H460, in the test on SK-MEL-2, in the test on SNB-19 and in the test with SR was > 100 µM (inactive) throughout.
With `NC(=S)N/N=C1\CC(c2ccccc2)Nc2ccccc21` (stereo unspecified), the GI50 with A498 was 18.5 µM (inactive); with ACHN, 46.3 µM (inactive); with DMS-114, 23.4 µM (inactive); in the test with DMS-273, 32.3 µM (inactive); in the test with HOP-92, 16.4 µM (inactive); in the test on M19-MEL, 39.4 µM (inactive). Moreover, the GI50 is 27.6 µM (inactive) in the test with Malme-3M; 32.7 µM (inactive) with NCI-H460; 40.8 µM (inactive) in the test with SNB-19; 68.9 µM (inactive) in the test on SNB-78; 39.6 µM (inactive) in the test on U-251.
Take `Cc1ccc(S(=O)(=O)N/N=C2/CCC(C(C)(C)C)CC2Br)cc1` (stereo unspecified): the GI50 with A498 is 48.6 µM (inactive); in the test on A549, 34 µM (inactive); in the test on ACHN, 34.1 µM (inactive); in the test on BT-549 it was 32.1 µM (inactive); in the test with DU-145, 42.6 µM (inactive); with HOP-92, 26.1 µM (inactive). Besides, the GI50 in the test on Hs-578T was 17.2 µM (inactive); in the test with MDA-MB-231, 37.9 µM (inactive); in the test on MDA-MB-435, 18.7 µM (inactive); with MDA-N it was 28.2 µM (inactive); in the test on Malme-3M it was 16.3 µM (inactive); with NCI-H460, 34.1 µM (inactive). Further, the GI50 with SK-MEL-2 is 13.7 µM (inactive); with SNB-19, 36.6 µM (inactive); in the test on SR, 39 µM (inactive); with U-251 it was 8.24 µM (inactive).
`CC[C@@H]1C[C@@H]2CN3CCc4c([nH]c5ccc(OC)cc45)C(COC(=O)c4ccc(OC)c(OC)c4)(C2)C13`: the GI50 was 21 µM (inactive) in the test with A498; 33 µM (inactive) in the test on A549; 24.4 µM (inactive) with ACHN; 11.6 µM (inactive) in the test on DMS-114; 10 µM (inactive) in the test on HOP-92; 36 µM (inactive) in the test on M19-MEL. Besides, the GI50 in the test on Malme-3M was > 10 µM (inactive); in the test on NCI-H460, 21.3 µM (inactive); with SK-MEL-2, > 10 µM (inactive); in the test with SNB-19, 37.6 µM (inactive); with SNB-78, 19.6 µM (inactive); with SR it was 13.6 µM (inactive). In addition, the GI50 in the test with U-251 is 16.5 µM (inactive).
`C=C1CC(OC)(C(O)C(=O)N[C@H]2OCO[C@H]3C2O[C@H](C[C@@H](COC)OC)C(C)(C)C3OC)O[C@H](C)[C@@H]1C` (stereo partly specified): the GI50 with A498, in the test on A549, with DMS-114, in the test with DMS-273, in the test with M19-MEL and in the test on NCI-H460 was < 0.00482 µM (active) throughout. For the same compound, the GI50 in the test on SNB-19, with SNB-78 and in the test on U-251 was < 0.00482 µM (active) throughout.
For the compound `CC(=O)O[C@@H]1C2=C(C3=C([O-])C4=CC=CC(=O)C4C(=O)C3=C2[N+]#N)[C@H](OC(C)=O)[C@@H](OC(C)=O)[C@]1(C)O` (stereo partly specified), the GI50 was 0.923 µM (active) in the test on A498; 0.292 µM (active) in the test with A549; 0.141 µM (active) in the test on ACHN; 0.631 µM (active) in the test with BT-549; 0.383 µM (active) with DU-145; 0.438 µM (active) with HOP-92. The GI50 is 0.173 µM (active) with Hs-578T; 0.286 µM (active) in the test on MDA-MB-231; 0.644 µM (active) with MDA-MB-435; 0.361 µM (active) with MDA-N; 0.332 µM (active) in the test on Malme-3M; 0.693 µM (active) with NCI-H460. In addition, the GI50 in the test on SK-MEL-2 was 0.832 µM (active); in the test on SNB-19, 0.951 µM (active); with SR, 0.101 µM (active).
In the case of `NC(=O)c1csc(C2O[C@@H](COP(=O)(O)OP(=O)(O)OC[C@H]3OC(n4cnc5c(N)ncnc54)[C@H](O)[C@@H]3O)[C@H](O)[C@@H]2O)n1` (stereo partly specified), the GI50 with A498 is > 100 µM (inactive); with A549, > 100 µM (inactive); in the test on ACHN it was > 100 µM (inactive); in the test with DMS-114, > 100 µM (inactive); with DMS-273, 99.5 µM (inactive); in the test with HOP-92, > 100 µM (inactive). The GI50 in the test with Malme-3M is > 100 µM (inactive); with NCI-H460, 39.6 µM (inactive); with SK-MEL-2, > 100 µM (inactive); in the test on SNB-19, > 100 µM (inactive); with SNB-78, > 100 µM (inactive); in the test on U-251 it was 45.8 µM (inactive).
